Where a name gives a salt, the structure may show the parent alone. Some results are limits rather than exact numbers.

For one assay, the target named is T1, rat TRPV1 (Rattus norvegicus, UniProt O35433).
T1 construct: expressed in transfected cells; host or cells: HEK293
Kind of assay: Block of capsaicin-induced Ca2+ influx, rat assay (rTRPV1/HEK293, FLIPR). Particulars: HEK293 cells transfected with rat TRPV1; capsaicin challenge; mean; > value = solubility limit in assay medium; read-out: Rat IC50. In kind it is cell-based. Here is the method:
(§1) HEK293 cells were transfected with human TRPV1 cloned in pcDNA3.1zeo(+) using the Effectene non-liposomal lipid based transfection kit (Qiagen) (hTRPV1/HEK293). hTRPV1/HEK293 cells were routinely grown as monolayers under selection in zeocin (200 μg/mL; Invitrogen) in Dulbecco's Modified Eagle Medium (DMEM, Gibco BRL) supplemented with 10% fetal bovine serum, and penicillin/streptomycin (50 units/mL) in 5% CO2 at 37° C. Cells were passaged frequently, every 3-5 days, to avoid overgrowth, depletion of essential medium components, or acidic medium exposure. Cells were passaged using a brief wash in 0.05% trypsin with 1 mM EDTA, followed by dissociation in divalent-free phosphate-buffered saline (Hyclone #SH30028.02). […] The assay buffer was composed of 130 mM NaCl, 2 mM KCl, 2 mM MgCl2, 10 mM HEPES, 5 mM glucose, and either 2 mM or 20 μM CaCl2. On the day of the experiment, the culture medium was replaced with 2 mM calcium assay buffer using an automated plate washer (ELx405; Biotek, VT). […] After loading the cells, the dye solution was replaced with 50 μL/well of 20 μM calcium assay buffer using the ELx405 plate washer. Test compounds (50 μL/well) were added to the plate and incubated for 30 min. Intracellular Ca^2+ levels were subsequently assayed using a Fluorometric Imaging Plate Reader (FLIPR™ instrument, Molecular Devices, CA) to simultaneously monitor Fluo-3 fluorescence in all wells (λexcitation=488 nm, λemission=540 nm) during challenge with agonist (capsaicin). The IC50 values were determined. […] The contents of the wells were mixed 3 times (40 μL mix volume) immediately after the additions were made. Concentration-dependence of block was determined by exposing each well of cells in duplicate rows of a 96-well plate to a serial dilution of test compound. The concentration series usually started at 10 μM with a three-fold serial decrement in concentration. The magnitude of the capsaicin response was determined by measuring the change in fluo3 fluorescence before and 100 seconds after the addition of the agonist. Data were analyzed using a non-linear regression program (Origin; OriginLab, MA).
This assay was performed similarly to the human assay described above, but using HEK293 cells transfected with rat TRPV1 (rTRPV1/HEK293).
(§2) IC50 values shown are the average (mean) of the results obtained. […] Compounds were tested as in the free base, trifluoroacetic acid salt, or hydrochloride salt form.

A further assay concerns the target T2, human TRPV1 (Homo sapiens, UniProt Q8NER1).
T2 construct: expressed in transfected cells; host or cells: HEK293
The assay can be described thus: Block of capsaicin-induced Ca2+ influx, human assay (hTRPV1/HEK293, FLIPR). In kind it is cell-based. Particulars: HEK293 cells transfected with human TRPV1; 150 nM capsaicin challenge; mean; > value = solubility limit in assay medium. On the procedure:
as §1, §2

T1 sequence (O35433 whole entry): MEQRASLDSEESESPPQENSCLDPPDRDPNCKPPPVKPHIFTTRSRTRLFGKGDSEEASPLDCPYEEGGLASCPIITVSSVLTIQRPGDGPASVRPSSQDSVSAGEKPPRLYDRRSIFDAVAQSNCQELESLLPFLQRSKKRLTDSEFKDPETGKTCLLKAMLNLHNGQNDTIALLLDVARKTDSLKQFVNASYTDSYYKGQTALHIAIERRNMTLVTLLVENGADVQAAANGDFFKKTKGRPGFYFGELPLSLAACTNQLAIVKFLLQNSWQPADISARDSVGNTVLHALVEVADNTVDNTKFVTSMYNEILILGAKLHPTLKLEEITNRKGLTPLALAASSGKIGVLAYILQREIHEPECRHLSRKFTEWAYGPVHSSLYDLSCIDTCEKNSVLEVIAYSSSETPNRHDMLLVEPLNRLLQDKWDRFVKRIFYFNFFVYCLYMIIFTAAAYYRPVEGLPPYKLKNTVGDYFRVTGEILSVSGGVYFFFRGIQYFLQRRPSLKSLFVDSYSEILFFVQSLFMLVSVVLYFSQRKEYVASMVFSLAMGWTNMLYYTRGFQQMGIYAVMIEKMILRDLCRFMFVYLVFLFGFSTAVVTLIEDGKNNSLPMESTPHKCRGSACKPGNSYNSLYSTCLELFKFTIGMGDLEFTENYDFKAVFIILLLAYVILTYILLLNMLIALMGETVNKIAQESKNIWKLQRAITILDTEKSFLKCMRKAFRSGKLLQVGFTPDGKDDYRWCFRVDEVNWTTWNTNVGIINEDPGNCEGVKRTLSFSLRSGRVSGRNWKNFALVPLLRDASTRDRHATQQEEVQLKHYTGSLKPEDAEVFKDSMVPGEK
T2 sequence (Q8NER1 whole entry): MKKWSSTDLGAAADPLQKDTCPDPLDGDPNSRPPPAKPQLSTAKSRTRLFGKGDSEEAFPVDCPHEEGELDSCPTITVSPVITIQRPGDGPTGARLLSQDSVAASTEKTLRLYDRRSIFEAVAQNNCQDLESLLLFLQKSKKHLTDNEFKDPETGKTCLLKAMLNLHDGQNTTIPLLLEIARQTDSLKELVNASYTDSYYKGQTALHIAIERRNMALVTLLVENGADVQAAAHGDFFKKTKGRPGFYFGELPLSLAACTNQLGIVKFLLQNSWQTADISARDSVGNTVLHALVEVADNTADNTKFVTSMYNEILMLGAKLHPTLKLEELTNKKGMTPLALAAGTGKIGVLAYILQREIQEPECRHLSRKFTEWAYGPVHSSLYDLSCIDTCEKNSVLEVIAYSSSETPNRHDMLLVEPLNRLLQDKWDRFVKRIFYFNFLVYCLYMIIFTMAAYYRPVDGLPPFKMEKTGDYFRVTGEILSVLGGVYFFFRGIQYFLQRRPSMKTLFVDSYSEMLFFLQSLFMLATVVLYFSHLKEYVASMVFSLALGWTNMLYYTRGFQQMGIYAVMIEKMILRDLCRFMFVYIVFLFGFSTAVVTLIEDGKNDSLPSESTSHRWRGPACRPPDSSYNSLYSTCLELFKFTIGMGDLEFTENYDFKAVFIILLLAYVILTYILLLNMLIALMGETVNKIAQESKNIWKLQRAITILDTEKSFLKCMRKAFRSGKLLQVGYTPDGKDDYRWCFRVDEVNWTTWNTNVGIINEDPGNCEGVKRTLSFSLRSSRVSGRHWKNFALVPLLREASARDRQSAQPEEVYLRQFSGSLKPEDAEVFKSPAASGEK

For the compound `Cc1ccc(Nc2ncnc3sc(Cc4c(Cl)cccc4Cl)nc23)cc1` [Example 46, 2-(2,6-Dichlorobenzyl)-N-(4-methylphenyl)[1,3]thiazolo[5,4-d]pyrimidin-7-amine], the figures for the IC50 at rat TRPV1 and on human TRPV1 were 52 nM and greater than 6670 nM, respectively.
The like results for `CC(C)(C(N)=O)c1ccc(Nc2ncnc3sc(Cc4c(Cl)cccc4Cl)nc23)cc1` [Example 47, 2-(4-{[2-(2,6-Dichlorobenzyl)[1,3]thiazolo[5,4-d]pyrimidin-7-yl]amino}phenyl)-2-methylpropanamide] were, in that order, 4490 nM and 8900 nM.
In the same order, the values of `FC(F)(F)c1ccccc1Cc1nc2c(Nc3ccccc3)ncnc2s1` [Example 48, N-Phenyl-2-[2-(trifluoromethyl)benzyl][1,3]thiazolo[5,4-d]pyrimidin-7-amine] are 410 nM and 852 nM.
The like results for `FC(F)(F)c1ccccc1Cc1nc2c(Nc3ccc(Br)cc3)ncnc2s1` [Example 49, N-(4-Bromophenyl)-2-[2-(trifluoromethyl)benzyl][1,3]thiazolo[5,4-d]pyrimidin-7-amine] were, in that order, 16 nM and 59 nM.
For the compound `CC(C)(C)c1ccc(Nc2ncnc3sc(Cc4ccccc4C(F)(F)F)nc23)cc1` [Example 50, N-(4-tert-Butylphenyl)-2-[2-(trifluoromethyl)benzyl][1,3]thiazolo[5,4-d]pyrimidin-7-amine], the results for the IC50 on rat TRPV1 and on human TRPV1 were 6 nM and 34 nM, respectively.
Turning to `CS(=O)(=O)c1ccc(Nc2ncnc3sc(Cc4ccccc4C(F)(F)F)nc23)cc1` [Example 51, N-[4-(Methylsulfonyl)phenyl]-2-[2-(trifluoromethyl)benzyl][1,3]thiazolo[5,4-d]pyrimidin-7-amine], the values for the IC50 at rat TRPV1 and against human TRPV1 were 39 nM and 202 nM, respectively.
In the same order, the values of `O=S(=O)(c1ccc(Nc2ncnc3sc(Cc4ccccc4C(F)(F)F)nc23)cc1)N1CCOCC1` [Example 52, N-[4-(Morpholin-4-ylsulfonyl)phenyl]-2-[2-(trifluoromethyl)benzyl][1,3]thiazolo[5,4-d]pyrimidin-7-amine] are 44 nM and 59 nM.
The like results for `FC(F)(F)c1ccc(Nc2ncnc3sc(Cc4cccc(Cl)c4)nc23)cn1` [Example 53, 2-(3-Chlorobenzyl)-N-[6-(trifluoromethyl)pyridin-3-yl][1,3]thiazolo[5,4-d]pyrimidin-7-amine] were, in that order, 118 nM and 336 nM.
The like results for `FC(F)(F)c1ccc(Nc2ncnc3sc(Cc4cccc(Cl)c4)nc23)cc1` [Example 54, 2-(3-Chlorobenzyl)-N-[4-(trifluoromethyl)phenyl][1,3]thiazolo[5,4-d]pyrimidin-7-amine] were, in that order, 88 nM and 252 nM.
As to `Cc1cccc(C)c1Cc1nc2c(Nc3ccccc3)ncnc2s1` [Example 55, 2-(2,6-Dimethylbenzyl)-N-phenyl[1,3]thiazolo[5,4-d]pyrimidin-7-amine], the values for the IC50 at rat TRPV1 and against human TRPV1 were 2860 nM and 3440 nM, respectively.
In the same order, the values of `Cc1cccc(C)c1Cc1nc2c(Nc3ccc(Br)cc3)ncnc2s1` [Example 56, N-(4-Bromophenyl)-2-(2,6-dimethylbenzyl)[1,3]thiazolo[5,4-d]pyrimidin-7-amine] are 475 nM and 714 nM.
Turning to `Cc1cccc(C)c1Cc1nc2c(Nc3ccc(C(C)(C)C)cc3)ncnc2s1` [Example 57, N-(4-tert-Butylphenyl)-2-(2,6-dimethylbenzyl)[1,3]thiazolo[5,4-d]pyrimidin-7-amine], the IC50 (in general, the concentration at which inhibition is half-maximal) on rat TRPV1 is 51 nM; on human TRPV1 it was 252 nM.
The like results for `Cc1cccc(C)c1Cc1nc2c(Nc3ccc(C(F)(F)F)cc3)ncnc2s1` [Example 58, 2-(2,6-Dimethylbenzyl)-N-[4-(trifluoromethyl)phenyl][1,3]thiazolo[5,4-d]pyrimidin-7-amine] were, in that order, 82 nM and 75 nM.
In the same order, the values of `Cc1cccc(C)c1Cc1nc2c(Nc3ccc(C(F)(F)F)nc3)ncnc2s1` [Example 59, 2-(2,6-Dimethylbenzyl)-N-[6-(trifluoromethyl)pyridin-3-yl][1,3]thiazolo[5,4-d]pyrimidin-7-amine] are 183 nM and 139 nM.
The like results for `Cc1cccc(C)c1Cc1nc2c(Nc3ccc(S(=O)(=O)N4CCOCC4)cc3)ncnc2s1` [Example 60, 2-(2,6-Dimethylbenzyl)-N-[4-(morpholin-4-ylsulfonyl)phenyl][1,3]thiazolo[5,4-d]pyrimidin-7-amine] were, in that order, 204 nM and 209 nM.
Consider `Cc1cccc(C)c1Cc1nc2c(Nc3ccc(S(C)(=O)=O)cc3)ncnc2s1` [Example 61, 2-(2,6-Dimethylbenzyl)-N-[4-(methylsulfonyl)phenyl][1,3]thiazolo[5,4-d]pyrimidin-7-amine], for which the IC50 on rat TRPV1 was 253 nM; against human TRPV1, 496 nM.
In the same order, the values of `CS(=O)(=O)c1nc(Nc2ccc(C(F)(F)F)cc2)c2nc(Cc3c(Cl)cccc3Cl)sc2n1` [Example 62, [2-(2,6-Dichloro-benzyl)-5-methanesulfonyl-thiazolo[5,4-d]pyrimidin-7-yl]-(4-trifluoromethyl-phenyl)-amine] are 32 nM and 72 nM.
The like results for `FC(F)(F)c1ccc(Nc2nc(N3CCOCC3)nc3sc(Cc4c(Cl)cccc4Cl)nc23)cc1` [Example 63, [2-(2,6-Dichloro-benzyl)-5-morpholin-4-yl-thiazolo[5,4-d]pyrimidin-7-yl]-(4-trifluoromethyl-phenyl)-amine] were, in that order, 3560 nM and greater than 6670 nM.
With `CC1CCCN1c1nc(Nc2ccc(C(F)(F)F)cc2)c2nc(Cc3c(Cl)cccc3Cl)sc2n1` (centres unmarked) [Example 64, [2-(2,6-Dichloro-benzyl)-5-(2-methyl-pyrrolidin-1-yl)-thiazolo[5,4-d]pyrimidin-7-yl]-(4-trifluoromethyl-phenyl)-amine], the figures for the IC50 at rat TRPV1 and at human TRPV1 were 323 nM and 466 nM, respectively.
The like results for `FC(F)(F)c1ccc(Nc2nc(NCCN3CCOCC3)nc3sc(Cc4c(Cl)cccc4Cl)nc23)cc1` [Example 65, 2-(2,6-Dichloro-benzyl)-N^5-(2-morpholin-4-yl-ethyl)-N^7-(4-trifluoromethyl-phenyl)-thiazolo[5,4-d]pyrimidine-5,7-diamine trifluoroacetic acid salt] were, in that order, 266 nM and 461 nM.
In the same order, the values of `FC(F)(F)c1ccc(Nc2nc(NCC3CC3)nc3sc(Cc4c(Cl)cccc4Cl)nc23)cc1` [Example 66, N^5-Cyclopropylmethyl-2-(2,6-dichloro-benzyl)-N^7-(4-trifluoromethyl-phenyl)-thiazolo[5,4-d]pyrimidine-5,7-diamine] are 103 nM and 249 nM.
In the same order, the values of `CC(C)C1CCCN1c1nc(Nc2ccc(C(F)(F)F)cc2)c2nc(Cc3c(Cl)cccc3Cl)sc2n1` (centres unmarked) [Example 68, [2-(2,6-Dichloro-benzyl)-5-(2-isopropyl-pyrrolidin-1-yl)-thiazolo[5,4-d]pyrimidin-7-yl]-(4-trifluoromethyl-phenyl)-amine] are 1690 nM and 2320 nM.
Consider `CC(C)CNc1nc(Nc2ccc(C(F)(F)F)cc2)c2nc(Cc3c(Cl)cccc3Cl)sc2n1` [Example 69, 2-(2,6-Dichloro-benzyl)-N^5-isobutyl-N^7-(4-trifluoromethyl-phenyl)-thiazolo[5,4-d]pyrimidine-5,7-diamine], for which the half-maximal inhibitory concentration (IC50) on rat TRPV1 came to 14 nM; at human TRPV1 it was 31 nM.
Consider `FC(F)(F)c1ccc(Nc2nc(N3CCN(C4CCCC4)CC3)nc3sc(Cc4c(Cl)cccc4Cl)nc23)cc1` [Example 76, [5-(4-Cyclopentyl-piperazin-1-yl)-2-(2,6-dichloro-benzyl)-thiazolo[5,4-d]pyrimidin-7-yl]-(4-trifluoromethyl-phenyl)-amine trifluoroacetic acid salt], for which the IC50 was 74 nM on rat TRPV1 and 310 nM at human TRPV1.
As to `FC(F)(F)c1ccc(Nc2nc(N3CCC(N4CCCC4)CC3)nc3sc(Cc4c(Cl)cccc4Cl)nc23)cc1` [Example 77, [2-(2,6-Dichloro-benzyl)-5-(4-pyrrolidin-1-yl-piperidin-1-yl)-thiazolo[5,4-d]pyrimidin-7-yl]-(4-trifluoromethyl-phenyl)-amine trifluoroacetic acid salt], the IC50 on rat TRPV1 was 4340 nM; against human TRPV1 it was 1120 nM.

The values above are taken from US9440978B2, “Imidazolo-, oxazolo-, and thiazolopyrimidine modulators of TRPV1” (Janssen Pharmaceutica NV, priority 2007, dated 2016).
